# Laboratory results: patent US11760754B2, “Heterocyclic mitochondrial activity inhibitors and uses thereof” (UNIVERSITÉ DE MONTRÉAL, priority 2017, dated 2023)
# Where two headings read alike, the source gives them in different places.
# What was measured:
# OCI-AML3 cells [1] = test: OCI-AML3 cell growth inhibition, dose-response viability assay (CellTiterGlo); type: cell-based; conditions: OCI-AML3 cells
# Outline: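 OCI-AML3 cells seeded, then exposed to compound in serial dilutions from 10 μM to 0.5 nM, in duplicate or quadruplicate. Viability read by CellTiter-Glo.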
# [2] = test system: Normal primitive CD34-positive cord blood cells; test: cells; conditions: Homo sapiens, CD34-positive cell, read-out: EC50 in normal primitive CD34-positive cord blood cells
# OCI-AML5 cells = conditions: 6-day culture, 384-well plates
# ETC complex I = conditions: cell free assay
# From the text: The cell-free kit assay for ETC complex I activity was purchased from MitoSciences (Abcam, Cambridge, UK), and used in accordance with the manufacturer's protocol.
# OCI-AML3 leukemic cells [3] = test system: OCI-AML3 leukemic cells
# Experimental: Oxygen consumption rates and extracellular acidification rates were measured using a 96-well Seahorse Bioanalyzer XFe96® or XFe24® according to the manufacturer's instructions (Agilent Technologies). Seahorse XF Base medium was supplemented with 1 mM pyruvate, 2 mM glutamine and 10 mM glucose in the case of Mitochondrial Stress Test and with 1 mM pyruvate, 2 mM glutamine and no glucose in the case of Glycolytic Stress Test. The pH of the Seahorse media was then adjusted at 7.4 prior to assay. In brief, leukemic cells were seeded into Seahorse 96-well (or 24-well) plates pre-coated for 3 h with poly-lysine (Sigma-Aldrich, P4707) at a density of 75,000 cells/well in 100 μL (or 150,000 cells/well, in 150 μL) of temperature/CO2 pre-adjusted Seahorse media per well. The Seahorse plates were then centrifuged at 1400 rpm for 5 min. An additional 75 μL (or 375 μL) of Seahorse media was then added and cells were eventually analyzed following the manufacturer's instructions by adding compounds in a constant volume of 25 μL (or 75 μL). Compounds were acutely injected in cells at a final concentration of 1 μM for Mubritinib, 1 μM for Oligomycin, 0.5 μM for FCCP, 0.5 μM for Rotenone/Antimycin A, Glucose 10 mM and 2-Deoxy-Glucose 50 mM.
# OCI-AML3 cells [4] = test system: OCI-AML3 cells
# Experimental: LC/MS metabolite measurements were carried out at the McGill Metabolomics platform. Authentic metabolite standards were purchased from Sigma-Aldrich Co., while the following LC/MS grade solvents and additives were purchased from Fisher: ammonium acetate, formic acid, water, methanol, and acetonitrile. OCI-AML3 cells (5 million cells, quadruplicates, treated with either DMSO or Mubritinib 500 nM for 20 h) were washed twice with ice-cold 150 mM ammonium formate pH 7.2. Metabolites were then extracted using 380 μl of LC/MS grade 50% methanol/50% water mixture and 220 μl of cold acetonitrile. Samples were then homogenized by 1.4 mm ceramic bead beating 2 min at 30 Hz (TissueLyser, Qiagen). A volume of 300 μl of ice-cold water and 600 μl of ice-cold methylene chloride were added to the lysates. Samples were vortexed and allowed to rest on ice for 10 min for phase separation followed by centrifugation at 4,000 rpm for 5 min. The upper aqueous layer was transferred to a fresh pre-chilled tube. Samples were eventually dried by vacuum centrifugation operating at −4° C. (Labconco) and stored at −80° C. until ready for LC-MS/MS data collection. For LC-MS/MS analysis, specimens were first re-suspended in 50 μl of water and clarified by centrifugation for 15 min at 15,000 rpm at 1° C. Samples were maintained at 4° C. for the duration of the LC-MS/MS analysis in the autosampler. Specimens were separated by U-HPLC (Ultra-High-Performance Liquid Chromatography) (1290 Infinity, Agilent Technologies) using a Scherzo SM-C18 (3 mm×150 mm) 3 μm column and guard column (Imtakt USA) operating at 10° C.
# OCI-AML3 cells [5] = test system: OCI-AML3 cells; remark: listed apart in the source
# From the text: (§1) The following FACS antibodies were used: anti-human CD45 Pacific Blue (BioLegend 304029), CD45 fluorescein isothiocyanate (FITC; BioLegend 304006), CD33 phycoerythrin (PE; BD Bioscience 555450), CD33 BV421 (BD 562854), CD34 […] (APC; BD Bioscience 555824), CD34 APC (Stem Cell Technologies 10613), CD3 FITC (BD Bioscience 555332), CD4 APC-Cy7 (BD 560158), CD8 APC (BD 555369), CD3 PE-Cy5 (BD 555334), CD19 PE-Cy7(BD Bioscience 557835), anti-mouse CD45.1 APC-efluor730 (eBioscience 47-0453-82), ERBB2-PE (Biolegend®, 324406), Annexin V FITC (BD Bioscience®, 556419). Dead cells were stained using Propidium iodide at a final concentration of 1 μg/mL. For ROS quantification cells were stained with 1 μM H2DCFDA (Thermo Fisher, […]) under normal growth conditions. Cells were analyzed on LSRII® flow cytometer (BD Bioscience®), BD Canto® II cytometer (BD Bioscience) or on an IQue Screener (Intellicyt®) and results were analyzed with BD fluorescence-activated cell sorter (FACS) Diva®4.1 and FlowJo®X software.
# OCI-AML3 leukemic cells [6] = conditions: 500 nM, 24 h
# From the text: as §1
# Complex I = conditions: OCI-AML3 cells, ubiquinone-dependent vs -independent activity
# [7] = test system: pyruvate dehydrogenase (PDH); conditions: OCI-AML3 cells
# AML patient cells = test: Primary AML patient cell dose-response viability assay (chemical screen); conditions: for EC50: Homo sapiens
# [8] = 500 nM, 24 h, relative to DMSO control
structure (smiles),measurement,setting,value
FC(F)(F)c1ccc(/C=C/c2nc(COc3ccc(CCCCn4ccnn4)cc3)co2)cc1 [Mubritinib],OCI-AML3 cells sensitive to the compound (dose response),OCI-AML3 cells [1],sensitive
same,EC50,[2],> 375 nM
same,OCI-AML5 response to compound-induced cell death,OCI-AML5 cells,resistant
same,effect on ETC Complex I activity,ETC complex I,inhibitory effect
same,glycolytic switch,OCI-AML3 leukemic cells [3]; OCI-AML3 cells,induce a glycolytic switch
same,oxygen consumption rate,"OCI-AML3 leukemic cells [3]; acute injection, 1 μM",impaired
same,levels of oxidized glutathione,OCI-AML3 cells [4]; [8],increased
same,levels of reduced glutathione,OCI-AML3 cells [4]; [8],decreased
same,"levels of citric acid cycle intermediates (citrate, alpha-ketoglutarate, succinate, fumarate, malate)",OCI-AML3 cells [4]; OCI-AML3 cells,reduces
same,compound-induced apoptosis in the presence of ROS scavenger N-acetyl-cysteine (NAC),"OCI-AML3 cells [5]; 100 nM 24 h, 6 mM NAC pre-incubation 4 hours",significantly decreased
same,Annexin V staining (marker of apoptosis),"OCI-AML3 cells [5]; 24 hours, 100 nM or 10 μM",increase
same,number of dead (PI-positive) cells,OCI-AML3 cells [5]; 27 hours of treatment,increase
same,live cell counts (PI-negative cells),"OCI-AML3 cells [5]; four days of treatment, dose-dependent",reduction
same,"level of ROS activity (hydroxyl, peroxyl), DCFDA",OCI-AML3 leukemic cells [6],increased
same,nature of inhibitory effect on complex I,Complex I,NADH-independent (i.e. ubiquinone-dependent)
same,effect on pyruvate dehydrogenase (PDH),[7],inhibit pyruvate dehydrogenase (PDH) in an indirect fashion
same,EC50,AML patient cells; read-out: Median EC50 in the AML population tested,~375 nM
same,EC50,"AML patient cells; read-out: median EC50, AML specimens with simultaneous mutations in NPM1, DNMT3A and FLT3-ITD",96 nM
same,EC50,"AML patient cells; read-out: median EC50, other AMLs subtypes",423 nM
same,sensitivity of HOX-high versus HOX-med/low AML cells,"AML patient cells; dose response validation screening, large cohort",significantly more sensitive
same,sensitivity of HOX-high versus HOX-med/low patient cells,AML patient cells; primary screen of 60 compounds,significantly more sensitive
